# Measured values as given in patent US12090163B2, “Pharmaceutical compositions” (CIPLA LIMITED, priority 2017, dated 2024).
# Structures can show the parent of a compound that is named as a salt.
# Assays:
# [1] = test system: HBV; test: Primary anti-HBV assay, extracellular HBV DNA by real-time qPCR from HepG2 2.2.15 cells; assay type: cell-based, HBV wild-type strain ayw1
# Description: The primary anti-HBV assay was performed by using real-time qPCR (TaqMan) to measure extracellular HBV DNA copy number associated with virions released from HepG2 2.2.15 cells. The HepG2 2.2.15 cell line was a stable human hepatoblastoma cell line that contains two copies of the HBV wild-type strain ayw1 genome and constitutively produces high levels of HBV. Antiviral compounds blocking any […] step of viral replication such as transcription, translation, pregenome encapsidation, reverse transcription, particle assembly and release can be identified and characterized using this cell line. Briefly, HepG2 2.2.15 cells were plated in 96-well microtiter plates at 1.5×10^4 cells/well in Dulbecco's Modified Eagle's Medium supplemented with 2% FBS, 380 μg/mL G418, 2.0 mM L-Glutamine, 100 units/mL Penicillin, 100 μg/mL Streptomycin, and 0.1 mM non-essential amino acids. Only the interior wells were utilized to reduce “edge effects” observed during cell culture; the exterior wells were filled with complete medium to help minimize sample evaporation. After 16-24 hours the confluent monolayer of HepG2 2.2.15 cells was washed and the medium was replaced with complete medium containing various concentrations of a test compound in triplicate. Lamivudine (3TC) was used as the positive control, while media alone was added to cells as a negative control (virus control, VC). Three days later the culture medium was replaced with fresh medium containing the appropriately diluted test compounds. Six days following the initial administration of the test compound, the cell culture supernatant was collected, treated with pronase and then used in a real-time quantitative TaqMan qPCR assay. The PCR-amplified HBV DNA was detected in real-time by monitoring increases in fluorescent signal that result from the exonucleolytic degradation of a quenched fluorescent probe molecule that hybridizes to the amplified HBV DNA. […] Antiviral activity was calculated from the reduction in HBV DNA levels (EC50 values determined). […] The Selectivity Index was calculated as CC50/EC50.
# [2] = Compound cytotoxicity in PBMC assay plates by MTS; assay type: cell-based; settings: human, PBMCs, listed as of isolate JV-1083
# Description: Fresh human PBMCs, seronegative for HIV and HBV, were isolated from screened donors (Biological Specialty Corporation, Colmar, PA). Cells were pelleted/washed 2-3 times by low speed centrifugation and re-suspension in PBS to remove contaminating platelets. The Leukophoresed blood was then diluted 1:1 with Dulbecco's Phosphate Buffered Saline (DPBS) and layered over 15 mL of Ficoll (GE Healthcare #17-1440-02) in 50 mL centrifuge tube and then centrifuged for 30 minutes at 600×g. Banded PBMCs were gently aspirated from the resulting interface and subsequently washed 2× with PBS by low speed centrifugation. […] Pooling (mixing) of mononuclear cells from more than one donor was used to minimize the variability observed between individual donors, which results from quantitative and qualitative differences in HIV infection and overall response to the PHA and IL-2 of primary lymphocyte populations. […]
# Following removal of supernatant samples, compound cytotoxicity was measured by addition of MTS to the plates for determination of cell viability. […]
# At assay termination, assay plates were stained with the soluble tetrazolium-based dye MTS (CellTiter 96 Reagent, Promega) to determine cell viability and quantify compound toxicity. […] This allows the rapid quantitative analysis of cell viability and compound cytotoxicity. […]
# [3] = Cytotoxicity in HepG2 2.2.15 cells by MTS uptake assay; assay type: cell-based; settings: human, HepG2 2.2.15 cells (contain the HBV ayw1 genome), same assay plate
smiles,measurement,setting,value
C[C@H](Cn1cnc2c(N)ncnc21)OCP(=O)(OCOC(=O)C(C)(C)C)Oc1ccccc1 (stereo partly drawn) [((((((R)-1-(6-amino-9H-purin-9-yl)propan-2-yl)oxy)methyl)(phenoxy)phosphoryl)oxy)methyl pivalate fumarate],Selectivity Index,"[1]; CC50/EC50, HepG2 2.2.15 cells",>1250
same,Conclusion: activity against HBV,[1]; HepG2 2.2.15 cells,potently active
same,EC50,"[1]; Hepatitis B virus, 144 h, reduction in extracellular HBV DNA, HepG2 2.2.15 cells, six days",0.08 µM
same,CC50,[2],27.7 µM
same,CC50 at 6 days,[3],> 100 µM
